Reference: US11739100B2, “2,3-dihydro-1h-imidazo{1,2-a}pyrimidin-5-one and this 1,2,3,4-tetrahydropyrimido{1,2-a}pyrimidin-6-one derivatives comprising a substituted morpholine, preparation thereof and pharmaceutical use thereof” (SANOFI, priority 2012, dated 2023)

biological target: T1, recombinant Vps34 (Homo sapiens, UniProt Q8NEB9); experiment: Phosphorylation of phosphatidylinositol (PI) by Vps34 in vitro, ADP detected by TR-FRET (HTRF Transcreener ADP); type: biochemical; details: 10 μM ATP, 55 μg/ml PI, approximately 3 nM Vps34, 1 hour at ambient temperature; absolute IC50, mean of two independent experiments; read-out: IC50 activity range
T1 construct: purchased Invitrogen PV5126
T1 sequence (Q8NEB9 whole entry): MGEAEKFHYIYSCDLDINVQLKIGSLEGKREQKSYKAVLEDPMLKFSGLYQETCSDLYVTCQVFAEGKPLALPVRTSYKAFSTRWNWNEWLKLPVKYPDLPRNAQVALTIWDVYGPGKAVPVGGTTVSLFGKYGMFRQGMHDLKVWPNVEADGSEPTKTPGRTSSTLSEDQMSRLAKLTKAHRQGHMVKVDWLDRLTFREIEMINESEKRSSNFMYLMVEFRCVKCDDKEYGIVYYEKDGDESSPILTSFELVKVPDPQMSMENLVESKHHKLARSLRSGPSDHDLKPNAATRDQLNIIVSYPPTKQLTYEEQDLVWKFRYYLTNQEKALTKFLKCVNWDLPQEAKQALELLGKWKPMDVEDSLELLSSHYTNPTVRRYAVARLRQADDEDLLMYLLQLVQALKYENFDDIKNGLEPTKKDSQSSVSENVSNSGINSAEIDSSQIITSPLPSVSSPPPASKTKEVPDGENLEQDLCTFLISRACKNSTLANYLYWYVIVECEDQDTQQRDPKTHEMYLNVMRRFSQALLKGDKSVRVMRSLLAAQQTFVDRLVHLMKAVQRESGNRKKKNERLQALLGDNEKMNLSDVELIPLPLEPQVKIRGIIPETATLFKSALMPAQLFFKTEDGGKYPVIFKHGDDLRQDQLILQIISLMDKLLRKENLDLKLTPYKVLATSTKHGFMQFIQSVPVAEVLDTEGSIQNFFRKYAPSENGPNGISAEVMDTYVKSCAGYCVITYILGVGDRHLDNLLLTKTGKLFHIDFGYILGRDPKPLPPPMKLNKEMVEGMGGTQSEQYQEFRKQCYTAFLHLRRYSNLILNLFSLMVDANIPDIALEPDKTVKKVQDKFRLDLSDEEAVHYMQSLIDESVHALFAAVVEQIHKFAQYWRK

Row | Structure (SMILES) | IC50 [nM]
1 | C[C@@H]1COCCN1c1nc2n(c(=O)c1F)CC[C@@H](C(F)(F)F)N2c1cccnc1 [Example 47, (S)-3-Fluoro-2-((R)-3-methylmorpholin-4-yl)-9-pyridin-3-yl-8-trifluoromethyl-6,7,8,9-tetrahydro-pyrimido[1,2-a]-pyrimidin-4-one] | 10 to 100
2 | CC1CN(c2cc(=O)n3c(n2)N(CC(=O)C(C)C)[C@H](C(F)(F)F)CC3)CCO1 (stereo partly drawn) [Example 320, (S)-2-(2-Methyl-morpholin-4-yl)-9-(3-methyl-2-oxobutyl)-8-trifluoromethyl-6,7,8,9-tetrahydropyrimido-[1,2-a]pyrimidin-4-one] | 10 to 100
3 | C[C@@H]1COCCN1c1cc(=O)n2c(n1)N(c1ccc(C(F)(F)F)nc1)[C@H](C(F)(F)F)CC2 [Example 81, (S)-2-((R)-3-Methyl-morpholin-4-yl)-8-trifluoromethyl-9-(6-trifluoromethylpyridin-3-yl)-6,7,8,9-tetrahydro-pyrimido[1,2-a]-pyrimidin-4-one] | < 10
4 | C[C@@H]1COCCN1c1nc2n(c(=O)c1F)[C@@H](C(F)(F)F)CCN2c1ccc(C(F)F)nc1 [Example 121, (R)-9-(6-Difluoromethylpyridin-3-yl)-3-fluoro-2-((R)-3-methylmorpholin-4-yl)-6-trifluoromethyl-6,7,8,9-tetrahydro-pyrimido[1,2-a]-pyrimidin-4-one] | < 10
5 | CC(C)OCCN1c2nc(N3CCOC[C@H]3C)cc(=O)n2CC[C@H]1C(F)(F)F [Example 300, (S)-9-(2-Isopropoxy-ethyl)-2-((R)-3-methyl-morpholin-4-yl)-8-trifluoromethyl-6,7,8,9-tetrahydro-pyrimido[1,2-a]-pyrimidin-4-one] | < 10
6 | C[C@@H]1COCCN1c1cc(=O)n2c(n1)N(Cc1cccc(F)n1)[C@H](C(F)(F)F)CC2 [Example 224, (S)-9-(6-Fluoropyridin-2-ylmethyl)-2-((R)-3-methylmorpholin-4-yl)-8-trifluoromethyl-6,7,8,9-tetrahydro-pyrimido[1,2-a]-pyrimidin-4-one] | < 10
7 | C[C@@H]1COCCN1c1nc2n(c(=O)c1F)[C@@H](C(F)(F)F)CCN2CC(=O)c1ccccn1 [Example 135, (R)-3-Fluoro-2-((R)-3-methylmorpholin-4-yl)-9-(2-oxo-2-pyridin-2-ylethyl)-6-trifluoromethyl-6,7,8,9-tetrahydro-pyrimido[1,2-a]-pyrimidin-4-one] | < 10
8 | CC(C)C(=O)CN1c2nc(N3CC4CCC(C3)O4)cc(=O)n2CC[C@H]1C(F)(F)F [Example 272, (S)-9-(3-Methyl-2-oxo-butyl)-2-(8-oxa-3-aza-bicyclo[3.2.1]oct-3-yl)-8-trifluoromethyl-6,7,8,9-tetrahydro-pyrimido[1,2-a]-pyrimidin-4-one] | > 100
9 | C[C@@H]1COCCN1c1cc(=O)n2c(n1)N(Cc1cncs1)[C@H](C(F)(F)F)CC2 [Example 87, (S)-2-((R)-3-Methyl-morpholin-4-yl)-9-thiazol-5-ylmethyl-8-trifluoromethyl-6,7,8,9-tetrahydro-pyrimido[1,2-a]-pyrimidin-4-one] | < 10
10 | C[C@@H]1COCCN1c1cc(=O)n2c(n1)N(CC(F)C1CC1)[C@H](C(F)(F)F)CC2 (single isomer, unassigned) [Example 325] | < 10
11 | C[C@@H]1COCCN1c1nc2n(c(=O)c1F)CC[C@@H](C(F)(F)F)N2Cc1ccc(F)nc1 [Example 51, (S)-3-Fluoro-9-(6-fluoropyridin-3-yl-methyl)-2-((R)-3-methylmorpholin-4-yl)-8-trifluoromethyl-6,7,8,9-tetrahydro-pyrimido[1,2-a]-pyrimidin-4-one] | < 10
12 | C[C@@H]1COCCN1c1nc2n(c(=O)c1F)CC[C@@H](C(F)(F)F)N2CC(=O)N1CCCO1 [Example 314, (S)-3-Fluoro-9-(2-isoxazolidin-2-yl-2-oxoethyl)-2-((R)-3-methylmorpholin-4-yl)-8-trifluoromethyl-6,7,8,9-tetrahydro-pyrimido[1,2-a]-pyrimidin-4-one] | < 10

Other lines, results leading:

Row | IC50 [nM] | Structure (SMILES)
13 | < 10 | COc1cc(C(=O)CN2c3nc(N4CCOC[C@H]4C)cc(=O)n3CC[C@H]2C(F)(F)F)ccn1 [Example 61, (S)-9-[2-(2-Methoxy-pyridin-4-yl)-2-oxo-ethyl]-2-((R)-3-methyl-morpholin-4-yl)-8-trifluoromethyl-6,7,8,9-tetrahydro-pyrimido[1,2-a]-pyrimidin-4-one]
14 | < 10 | Cc1nc(CN2c3nc(N4CCOC[C@H]4C)cc(=O)n3CC[C@@]2(C)C(F)(F)F)no1 [Example 211, (S)-8-Methyl-2-((R)-3-methylmorpholin-4-yl)-9-(5-methyl-[1,2,4]oxadiazol-3-yl-methyl)-8-trifluoromethyl-6,7,8,9-tetrahydro-pyrimido[1,2-a]-pyrimidin-4-one]
15 | < 10 | C[C@@H]1COCCN1c1cc(=O)n2c(n1)N(Cc1cccnc1F)[C@H](C(F)(F)F)CC2 [Example 221, (S)-9-(2-Fluoropyridin-3-ylmethyl)-2-((R)-3-methylmorpholin-4-yl)-8-trifluoromethyl-6,7,8,9-tetrahydro-pyrimido[1,2-a]-pyrimidin-4-one]
16 | < 10 | C[C@@H]1COCCN1c1cc(=O)n2c(n1)N(Cc1nc(C(F)(F)F)no1)[C@H](C(F)(F)F)CC2 [Example 292, (S)-2-((R)-3-Methyl-morpholin-4-yl)-8-trifluoromethyl-9-(3-trifluoromethyl-[1,2,4]oxadiazol-5-yl-methyl)-6,7,8,9-tetrahydro-pyrimido[1,2-a]-pyrimidin-4-one]
17 | < 10 | C[C@@H]1COCCN1c1cc(=O)n2c(n1)N(CC(=O)c1cccnc1)[C@H](C(F)(F)F)CC2 [Example 11, (S)-2-((R)-3-Methyl-morpholin-4-yl)-9-(2-oxo-2-pyridin-3-yl-ethyl)-8-trifluoromethyl-6,7,8,9-tetrahydro-pyrimido[1,2-a]-pyrimidin-4-one]
18 | < 10 | C[C@@H]1COCCN1c1cc(=O)n2c(n1)N(Cc1ccc(Cl)s1)[C@H](C(F)(F)F)CC2 [Example 98, (S)-9-(5-Chloro-thiophen-2-ylmethyl)-2-((R)-3-methyl-morpholin-4-yl)-8-trifluoromethyl-6,7,8,9-tetrahydro-pyrimido[1,2-a]-pyrimidin-4-one]
19 | < 10 | C[C@@H]1COCCN1c1nc2n(c(=O)c1F)CC[C@@H](C(F)(F)F)N2Cc1ccc(F)cn1 [Example 56, (S)-3-Fluoro-9-(5-fluoropyridin-2-yl-methyl)-2-((R)-3-methylmorpholin-4-yl)-8-trifluoromethyl-6,7,8,9-tetrahydro-pyrimido[1,2-a]-pyrimidin-4-one]
20 | < 10 | C[C@@H]1COCCN1c1nc2n(c(=O)c1F)CC[C@@H](C(F)(F)F)N2CC(C)(C)O [Example 49, (S)-3-Fluoro-9-(2-hydroxy-2-methyl-propyl)-2-((R)-3-methylmorpholin-4-yl)-8-trifluoromethyl-6,7,8,9-tetrahydro-pyrimido[1,2-a]-pyrimidin-4-one]
21 | < 10 | C[C@@H]1COCCN1c1nc2n(c(=O)c1F)[C@@H](C(F)(F)F)CCN2c1ccnc(Cl)c1 [Example 122, (R)-9-(2-Chloro-pyridin-4-yl)-3-fluoro-2-((R)-3-methyl-morpholin-4-yl)-6-trifluoromethyl-6,7,8,9-tetrahydro-pyrimido[1,2-a]-pyrimidin-4-one]
22 | < 10 | C[C@@H]1COCCN1c1cc(=O)n2c(n1)N(CC1COC1)[C@H](C(F)(F)F)CC2 [Example 133, (S)-2-((R)-3-Methyl-morpholin-4-yl)-9-oxetan-3-ylmethyl-8-trifluoromethyl-6,7,8,9-tetrahydro-pyrimido[1,2-a]-pyrimidin-4-one]
23 | < 10 | C[C@@H]1COCCN1c1cc(=O)n2c(n1)N(Cc1ccc(Cl)cn1)[C@H](C(F)(F)F)CC2 [Example 86, (S)-9-(5-Chloro-pyridin-2-ylmethyl)-2-((R)-3-methyl-morpholin-4-yl)-8-trifluoromethyl-6,7,8,9-tetrahydro-pyrimido[1,2-a]-pyrimidin-4-one]
24 | < 10 | C[C@@H]1COCCN1c1nc2n(c(=O)c1F)CC[C@@H](C(F)(F)F)N2Cc1ccc(Cl)nc1 [Example 52, (S)-9-(6-Chloro-pyridin-3-ylmethyl)-3-fluoro-2-((R)-3-methyl-morpholin-4-yl)-8-trifluoromethyl-6,7,8,9-tetrahydro-pyrimido[1,2-a]-pyrimidin-4-one]
25 | < 10 | C[C@@H]1COCCN1c1cc(=O)n2c(n1)N(CC(=O)N1CCCCC1)[C@H](C(F)(F)F)CC2 [Example 233, (S)-2-((R)-3-Methyl-morpholin-4-yl)-9-(2-oxo-2-piperidin-1-yl-ethyl)-8-trifluoromethyl-6,7,8,9-tetrahydro-pyrimido[1,2-a]-pyrimidin-4-one]
26 | < 10 | C[C@@H]1COCCN1c1nc2n(c(=O)c1F)CC[C@@H](C(F)(F)F)N2Cc1cocn1 [Example 44, (S)-3-Fluoro-2-((R)-3-methylmorpholin-4-yl)-9-oxazol-4-ylmethyl-8-trifluoromethyl-6,7,8,9-tetrahydro-pyrimido[1,2-a]-pyrimidin-4-one]
27 | < 10 | C[C@@H]1COCCN1c1cc(=O)n2c(n1)N(Cc1ccccn1)[C@H](C(F)(F)F)CC2 [Example 218, (S)-2-((R)-3-Methyl-morpholin-4-yl)-9-pyridin-2-ylmethyl-8-trifluoromethyl-6,7,8,9-tetrahydro-pyrimido[1,2-a]-pyrimidin-4-one]
28 | < 10 | C[C@@H]1COCCN1c1cc(=O)n2c(n1)N(Cc1nc(C(F)(F)F)no1)CC[C@@H]2C(F)(F)F [Example 144, (R)-2-((R)-3-Methyl-morpholin-4-yl)-6-trifluoromethyl-9-(3-trifluoromethyl-[1,2,4]oxadiazol-5-yl-methyl)-6,7,8,9-tetrahydro-pyrimido[1,2-a]-pyrimidin-4-one]
29 | < 10 | C[C@@H]1COCCN1c1cc(=O)n2c(n1)N(c1ccnc(Cl)c1)[C@H](C(F)(F)F)CC2 [Example 79, (S)-9-(2-Chloro-pyridin-4-yl)-2-((R)-3-methylmorpholin-4-yl)-8-trifluoromethyl-6,7,8,9-tetrahydro-pyrimido[1,2-a]-pyrimidin-4-one]
